Data published in PMC7023430, “4-Aminobenzoic Acid Derivatives: Converting Folate Precursor to Antimicrobial and Cytotoxic Agents” (Biomolecules, 2019).
In brackets after ≈: the same amount, converted by molar mass. Read-outs that look alike come from different tables or passages of the source.

Experiments:
[1] = test system: Staphylococcus aureus ATCC 29213, CCM 4223; assay: Antibacterial microdilution broth method, S. aureus; type: cell-based
[2] = test system: methicillin-resistant Staphylococcus aureus ATCC 43300, CCM 4750 (MRSA); assay: Antibacterial microdilution broth method, MRSA; type: cell-based; settings: Staphylococcus aureus
[3] = test system: Staphylococcus epidermidis H 6966/08; assay: Antibacterial microdilution broth method, S. epidermidis; type: cell-based; settings: Staphylococcus epidermidis, H6966/08, S. epidermidis
[4] = test system: Enterococcus faecalis ATCC 29212, CCM 4224; assay: Antibacterial microdilution broth method, E. faecalis; type: cell-based; settings: Enterococcus faecalis
[5] = test system: Escherichia coli ATCC 25922, CCM 3954; assay: Antibacterial microdilution broth method, E. coli; type: cell-based; settings: Escherichia coli
[6] = test system: Pseudomonas aeruginosa ATCC 27853, CCM 3955; assay: Antibacterial microdilution broth method, P. aeruginosa; type: cell-based; settings: Pseudomonas aeruginosa, P. aeruginosa
[7] = test system: Mycobacterium tuberculosis H37Rv (331/88); assay: Antimycobacterial micromethod in Šula's medium, M. tuberculosis; type: cell-based
[8] = test system: Mycobacterium avium 330/88; assay: Antimycobacterial micromethod in Šula's medium, M. avium; type: cell-based
[9] = test system: Mycobacterium kansasii 235/80; assay: Antimycobacterial micromethod in Šula's medium, M. kansasii 235/80; type: cell-based
[10] = test system: M. kansasii 6509/96 (clinical isolate); assay: Antimycobacterial micromethod in Šula's medium, M. kansasii 6509/96; type: cell-based; settings: Mycobacterium kansasii
[11] = test system: Candida albicans ATCC 44859; assay: Antifungal microdilution broth method, C. albicans; type: cell-based
Description: (§1) The antifungal properties were evaluated against five yeast strains, namely: Candida albicans ATCC 44859, Candida tropicalis 156, Candida krusei […], Candida glabrata 20/I, Trichosporon […] 1188 and three strains of filamentous fungi: Aspergillus fumigatus 231, Lichtheimia corymbifera 272, and Trichophyton interdigitale 445. A microdilution broth method was performed according to EUCAST II, III instructions with slight modifications. Briefly, tested compounds were dissolved in DMSO and diluted in a twofold manner with RPMI-1640 medium with L-glutamine, supplemented with 2% glucose (w/v) and buffered to pH 7.0 with 3 morpholinopropane-1-sulfonic acid (all components were purchased from Sigma-Aldrich, USA). […] Positive controls consisted of test microbe solely, while negative controls consisted of medium and DMSO. Internal quality control was included too. Visual inspection was used for MIC endpoints evaluation. The experiments were conducted in duplicates. For the results to be valid, the difference in MIC determined from two parallel measurements must not be greater than one step on the dilution scale. PABA and triazole antimycotic drug fluconazole were involved as the reference compounds.

[12] = test system: Candida tropicalis 156; assay: Antifungal microdilution broth method, C. tropicalis; type: cell-based
Description: as §1

[13] = test system: Candida krusei E28; assay: Antifungal microdilution broth method, C. krusei; type: cell-based; settings: Pichia kudriavzevii
Description: as §1

[14] = test system: Candida glabrata 20/I; assay: Antifungal microdilution broth method, C. glabrata; type: cell-based; settings: Nakaseomyces glabratus
Description: as §1

[15] = test system: Trichosporon asahii 1188; assay: Antifungal microdilution broth method, T. asahii; type: cell-based
Description: as §1

[16] = test system: Aspergillus fumigatus 231; assay: Antifungal microdilution broth method, A. fumigatus; type: cell-based
Description: as §1

[17] = test system: Lichtheimia corymbifera 272; assay: Antifungal microdilution broth method, L. corymbifera; type: cell-based
Description: as §1

[18] = test system: Trichophyton interdigitale 445; assay: Antifungal microdilution broth method, T. interdigitale; type: cell-based
Description: as §1

[19] = test system: four Gram-positive and four Gram-negative strains; assay: Antibacterial activity; type: cell-based; settings: statement over the bacterial panel; time not stated
[20] = test system: Mtb. 331/88 and three non-tuberculous mycobacterial strains; assay: Antimycobacterial activity; type: cell-based; settings: statement over four mycobacterial strains; time not stated
[21] = test system: eight fungal strains; assay: Antifungal activity; type: cell-based; settings: statement over the fungal panel; time not stated
Description: as §1

[22] = test system: ESBL-positive Klebsiella pneumoniae J 14368/08
[23] = test system: Klebsiella pneumoniae D 11750/08; assay: Antibacterial microdilution broth method, K. pneumoniae; settings: K. pneumoniae D 11750/08; for MIC KP 24 h: 24 h incubation; for MIC KP 48 h: 48 h incubation
[24] = test system: staphylococci; settings: according to EUCAST ref 33; cited from earlier work
[25] = 24 h incubation, read-out: MIC SA 24 h
[26] = 48 h incubation, read-out: MIC SA 48 h
[27] = 24 h incubation, read-out: MIC MRSA 24 h
[28] = 48 h incubation, read-out: MIC MRSA 48 h
[29] = 24 h incubation, read-out: MIC SE 24 h
[30] = 48 h incubation, read-out: MIC SE 48 h
[31] = 24 h incubation, read-out: MIC EF 24 h
[32] = 48 h incubation, read-out: MIC EF 48 h
[33] = 24 h incubation, read-out: MIC EC 24 h
[34] = 48 h incubation, read-out: MIC EC 48 h
[35] = 24 h incubation, read-out: MIC PA 24 h
[36] = 48 h incubation, read-out: MIC PA 48 h
[37] = 336 h, 14 days incubation at 37 °C, read-out: MIC Mtb. 331/88 14 d
[38] = 504 h, 21 days incubation at 37 °C, read-out: MIC Mtb. 331/88 21 d
[39] = 330/88, 336 h, 14 days incubation at 37 °C, read-out: MIC M. avium 330/88 14 d
[40] = 330/88, 504 h, 21 days incubation at 37 °C, read-out: MIC M. avium 330/88 21 d
[41] = 235/80, 168 h, 7 days incubation at 37 °C, read-out: MIC M. kansasii 235/80 7 d
[42] = 235/80, 336 h, 14 days incubation at 37 °C, read-out: MIC M. kansasii 235/80 14 d
[43] = 235/80, 504 h, 21 days incubation at 37 °C, read-out: MIC M. kansasii 235/80 21 d
[44] = 168 h, 7 days incubation at 37 °C, read-out: MIC M. kansasii 6509/96 7 d
[45] = 336 h, 14 days incubation at 37 °C, read-out: MIC M. kansasii 6509/96 14 d
[46] = 504 h, 21 days incubation at 37 °C, read-out: MIC M. kansasii 6509/96 21 d
[47] = ATCC44859, 24 h, read-out: MIC CA 24 h
[48] = ATCC44859, 48 h, read-out: MIC CA 48 h

COc1ccccc1C=Nc1ccc(C(=O)O)cc1 [1s, 4-[(2-Methoxybenzylidene)amino]benzoic acid]
MIC [1, 25]: > 500 µM | MIC [1, 26]: > 500 µM | MIC [2, 27]: > 500 µM | MIC [2, 28]: > 500 µM | MIC [3, 29]: > 500 µM | MIC [3, 30]: > 500 µM | MIC [4, 31]: > 500 µM | MIC [4, 32]: > 500 µM | MIC [5, 33]: > 500 µM | MIC [5, 34]: > 500 µM | MIC [6, 35]: > 500 µM | MIC [6, 36]: > 500 µM | MIC [7, 37]: 1000 µM (≈ 255 µg/mL) | MIC [7, 38]: 1000 µM (≈ 255 µg/mL) | MIC [8, 39]: > 1000 µM | MIC [8, 40]: > 1000 µM | MIC [9, 41]: 1000 µM (≈ 255 µg/mL) | MIC [9, 42]: 1000 µM (≈ 255 µg/mL) | MIC [9, 43]: > 1000 µM | MIC [10, 44]: 1000 µM (≈ 255 µg/mL) | MIC [10, 45]: 1000 µM (≈ 255 µg/mL) | MIC [10, 46]: 1000 µM (≈ 255 µg/mL) | MIC [11, 47]: > 500 µM | MIC [11, 48]: > 500 µM | MIC ([12]; 24 h, read-out: MIC CT 24 h): > 500 µM | MIC ([12]; 48 h, read-out: MIC CT 48 h): > 500 µM | MIC ([13]; 24 h, read-out: MIC CK 24 h): > 500 µM | MIC ([13]; 48 h, read-out: MIC CK 48 h): > 500 µM | MIC ([14]; 24 h, read-out: MIC CG 24 h): > 500 µM | MIC ([14]; 48 h, read-out: MIC CG 48 h): > 500 µM | MIC ([15]; 24 h, read-out: MIC TA 24 h): > 500 µM | MIC ([15]; 48 h, read-out: MIC TA 48 h): > 500 µM | MIC ([16]; 24 h, read-out: MIC AF 24 h): > 500 µM | MIC ([16]; 48 h, read-out: MIC AF 48 h): > 500 µM | MIC ([17]; 24 h, read-out: MIC LC 24 h): > 500 µM | MIC ([17]; 48 h, read-out: MIC LC 48 h): > 500 µM | MIC ([18]; 72 h, read-out: MIC TI 72 h): > 500 µM | MIC ([18]; 120 h, read-out: MIC TI 120 h): > 500 µM | MIC, antibacterial activity [19]: avoided any antibacterial action | MIC, antimycobacterial activity [20]: only negligible antimycobacterial activity | MIC, antifungal activity [21]: no antimycotic potency | MIC KP-E 24 h [22]: >500 µM | MIC KP-E 48 h [22]: >500 µM | MIC KP 24 h [23]: >500 µM | MIC KP 48 h [23]: >500 µM

O=C(O)c1ccc(N=Cc2ccc(O)cc2)cc1 [1t, 4-[(4-Hydroxybenzylidene)amino]benzoic acid]
MIC [1, 25]: > 500 µM | MIC [1, 26]: > 500 µM | MIC [2, 27]: > 500 µM | MIC [2, 28]: > 500 µM | MIC [3, 29]: > 500 µM | MIC [3, 30]: > 500 µM | MIC [4, 31]: > 500 µM | MIC [4, 32]: > 500 µM | MIC [5, 33]: > 500 µM | MIC [5, 34]: > 500 µM | MIC [6, 35]: > 500 µM | MIC [6, 36]: > 500 µM | MIC [7, 37]: 1000 µM (≈ 241 µg/mL) | MIC [7, 38]: 1000 µM (≈ 241 µg/mL) | MIC [8, 39]: 1000 µM (≈ 241 µg/mL) | MIC [8, 40]: > 1000 µM | MIC [9, 41]: 1000 µM (≈ 241 µg/mL) | MIC [9, 42]: 1000 µM (≈ 241 µg/mL) | MIC [9, 43]: > 1000 µM | MIC [10, 44]: 1000 µM (≈ 241 µg/mL) | MIC [10, 45]: 1000 µM (≈ 241 µg/mL) | MIC [10, 46]: 1000 µM (≈ 241 µg/mL) | MIC [11, 47]: > 500 µM | MIC [11, 48]: > 500 µM | MIC ([12]; 24 h, read-out: MIC CT 24 h): > 500 µM | MIC ([12]; 48 h, read-out: MIC CT 48 h): > 500 µM | MIC ([13]; 24 h, read-out: MIC CK 24 h): > 500 µM | MIC ([13]; 48 h, read-out: MIC CK 48 h): > 500 µM | MIC ([14]; 24 h, read-out: MIC CG 24 h): > 500 µM | MIC ([14]; 48 h, read-out: MIC CG 48 h): > 500 µM | MIC ([15]; 24 h, read-out: MIC TA 24 h): > 500 µM | MIC ([15]; 48 h, read-out: MIC TA 48 h): > 500 µM | MIC ([16]; 24 h, read-out: MIC AF 24 h): > 500 µM | MIC ([16]; 48 h, read-out: MIC AF 48 h): > 500 µM | MIC ([17]; 24 h, read-out: MIC LC 24 h): > 500 µM | MIC ([17]; 48 h, read-out: MIC LC 48 h): > 500 µM | MIC ([18]; 72 h, read-out: MIC TI 72 h): > 500 µM | MIC ([18]; 120 h, read-out: MIC TI 120 h): > 500 µM | MIC, antibacterial activity [19]: avoided any antibacterial action | MIC, antimycobacterial activity [20]: only negligible antimycobacterial activity | MIC, antifungal activity [21]: no antimycotic potency | MIC KP-E 24 h [22]: >500 µM | MIC KP-E 48 h [22]: >500 µM | MIC KP 24 h [23]: >500 µM | MIC KP 48 h [23]: >500 µM

O=C1CN(/N=C/c2ccc([N+](=O)[O-])o2)C(=O)N1 [nitrofurantoin]
breakpoint for staphylococci [24]: 32 to 64 µg/mL
